Experimental data published in paper PMC4628118 (Frontiers in Microbiology, 2015).

Assays:
Assay in all cases: biochemical
[1] = system: drug-resistant HIV-1 PR (PR02-A) harboring L10I/G48S/I54V/V82F/L90M mutations; conditions: IC50 of drug-resistant PR divided by IC50 of WT PR
Procedure: (§1) In vitro transcription and cell-free protein synthesis were performed using WEPRO7240 wheat germ extract (CellFree Sciences, Yokohama, Japan). Transcription was performed using SP6 RNA polymerase, as described previously ([Matsunaga et al., 2014]). The translation reaction was performed in bilayer mode with slight modifications. Briefly, translation mixture (forming the bottom layer) consisted of 10 μl of each mRNA (usually 30–35 μg), 10 μl of WEPRO7240 (CellFree Sciences, Yokohama, Japan), and 0.8 μl of 1 μg/μl creatine kinase (Roche Diagnostics K. K., Tokyo, Japan) in 20.8 μl of SUB-AMIX® (CellFree Sciences, Yokohama, Japan). SUB-AMIX (206 μl) was placed on top of the translation mixture, thus forming the top layer. After incubation at 16°C for 16 h, synthesized proteins were confirmed by immunoblotting. For biotinylation of the substrate, 1 μl (50 ng) of crude biotin ligase (BirA) expressed in a wheat germ cell-free system was added to the bottom layer, and 0.5 μM (final concentration) of D-biotin (Nacalai Tesque, Inc., Kyoto, Japan) was added to both the top and bottom layers, as described previously ([Matsuoka et al., 2010]). As an initial experimental test, radiolabeled protein was produced by cell-free synthesis to confirm the yield and solubility of generated proteins as described previously ([Kamura et al., 2005]). In actual drug susceptibility testing, quantitations of synthesized HIV-1 PR proteins were performed by densitometric scanning of Coomassie Brilliant Blue (CBB)-stained bands as compared with purified HIV-1 PR or bovine serum albumin (BSA) ([Madin et al., 2000]).
(§2) CFDSA was performed using cell-free–synthesized PR, substrate peptide, and the AlphaScreen® system (PerkinElmer, Boston, MA, USA). […] The mixture was incubated at 37°C for 30 min in a 384-well Alphaplate (PerkinElmer). The enzymatic reaction was initiated by the addition of 5 μl of 0.25 μM cell-free–synthesized GST-p2/p7-bls substrate to each well, followed by incubation at 37°C for 2 h. Detection of PR activity was performed essentially as described in the AlphaScreen IgG detection kit instruction manual (PerkinElmer). Briefly, 10 μl of detection mixture containing 20 mM Tris-HCl (pH 7.5), 0.2 mM DTT, 5 mM MgCl2, 5 μg/ml anti-GST antibody, 1 mg/ml BSA, 0.1 μl streptavidin-coated donor beads, and 0.1 μl anti-IgG acceptor beads were added to each well of the 384-well plate, followed by incubation at 23°C for 1 h in the dark. Luminescence signals were analyzed with the AlphaScreen detection program using the EnSpire software (PerkinElmer), and light intensities in the presence of the serially diluted inhibitors were used to calculate their IC50 values. PI-resistance levels were determined by comparing the IC50 values of drug-resistant PR with those of NL4-3 PR. The results for each PR were normalized based on protein productivity, as determined by liquid scintillation counting. IC50 values were calculated using XLfit (ID BUSINESS SOLUTIONS, Guildford, UK). The criteria for CFDSA measurement of resistance were as follows: fold resistance value (FRV) = IC50 ratio of test PR/IC50 ratio of WT PR.
(§3) For the quantitative and high-throughput measurement of HIV-1 PR activity using AlphaScreen technology, we designed a reporter substrate comprising a partial Gag p2-p7 junction peptide flanked by N-terminal GST and C-terminal biotin binding sequence (GST-p2/p7-biotin) as described in Figure 2A.

[2] = molecular target: WT HIV-1 PR (NL4-3) (Human immunodeficiency virus type 1 group M subtype B, UniProt P12497)
Procedure: as §1, §2, §3

[3] = molecular target: drug-resistant HIV-1 PR (PR02-A) harboring L10I/G48S/I54V/V82F/L90M mutations (Human immunodeficiency virus type 1 group M subtype B, UniProt P12497, G536S/I542V/L498I/L578M/V570F)
Procedure: as §1, §2, §3

SMILES	fold-resistance to WT PR (FRV, DR/WT) [1] [fold]	IC50 [2] [nM]	IC50 [3] [nM]
CC(C)CN(C[C@@H](O)[C@H](Cc1ccccc1)NC(=O)O[C@H]1CCOC1)S(=O)(=O)c1ccc(N)cc1 [APV, amprenavir]	4.0	23.2	93.5
COC(=O)N[C@H](C(=O)N[C@@H](Cc1ccccc1)[C@@H](O)CN(Cc1ccc(-c2ccccn2)cc1)NC(=O)[C@@H](NC(=O)OC)C(C)(C)C)C(C)(C)C [ATV, atazanavir]	7.7	17.8	137
